The record followed here is article PMC3298469, “A selective and potent CXCR3 antagonist SCH 546738 attenuates the development of autoimmune diseases and delays graft rejection” (BMC Immunology, 2012).

The structures appear in SMILES notation.

One assay relates to C57BL/6 mice. As to the kind of experiment: mouse experimental autoimmune encephalomyelitis (MOG35-55). Format: in vivo.
A further assay has as its target T1, rat CXCR3 (Rattus norvegicus, UniProt Q9JII9).
T1 construct: expressed in transfected cells; host or cells: mouse pro-B Ba/F3 cells (vector pME18Sneo), membrane preparation
As to the kind of experiment: [125I]hCXCL10 competition binding (SPA, Ba/F3 membranes). As to conditions: read-out: IC50 (nM) (CXCL10). As for the experimental part:
(§1) The cDNAs encoding human, mouse and rat CXCR3 were generated based on the published sequences: human (NM_001504), mouse (NM_009910), rat (NM_053415). The cDNAs for monkey and dog CXCR3 were cloned in the lab. All CXCR3 cDNAs were cloned into the mammalian expression vector pME18Sneo, a derivative of the SRα expression vector as described previously. IL-3-dependent mouse pro-B cells Ba/F3 were transfected to express CXCR3 of different species and cell membranes were prepared as described previously.
(§2) A scintillation proximity assay was used for radioligand competition binding assays as described previously with some modifications. For each assay point, 1 µg of membrane was preincubated for 1 hr with 300 µg wheat germ agglutinin (WGA) coated SPA beads (GE Healthcare Life Sciences) in the binding buffer (50 mM HEPES, 1 mM CaCl2, 5 mM MgCl2, 125 mM NaCl, 0.002% NaN3, 1.0% BSA) at room temperature. The beads were spun down, resuspended in the binding buffer and transferred to a 96-well Isoplate (Wallac, Gaithersburg, MD). The indicated concentrations of ^125I-hCXCL10, ^125I-hCXCL11 or ^35S-SCH 535390 with a series of titrations of SCH 546738 were added to start the reaction. After indicated reaction times at room temperature, the amount of radioactivity bound to the SPA beads was determined with a Wallac 1450 Microbeta counter (Wallac).
(§3) It is important to investigate species specificity of SCH 546738 to design in vivo preclinical studies.

For another assay, the target named is T2, mouse CXCR3 (Mus musculus, UniProt O88410).
T2 construct: expressed in transfected cells; host or cells: mouse pro-B Ba/F3 cells (vector pME18Sneo), membrane preparation
Described as above. As to conditions: read-out: IC50 (nM) (CXCL10). On the procedure:
as §1, §2, §3

A further assay concerns the target T3, dog CXCR3 (Canis lupus familiaris, UniProt Q5KSK8).
T3 construct: expressed in transfected cells; host or cells: mouse pro-B Ba/F3 cells (vector pME18Sneo), membrane preparation
The description is as above. As to conditions: read-out: IC50 (nM) (CXCL10). As for the experimental part:
as §1, §2, §3

T1 sequence (Q9JII9 whole entry): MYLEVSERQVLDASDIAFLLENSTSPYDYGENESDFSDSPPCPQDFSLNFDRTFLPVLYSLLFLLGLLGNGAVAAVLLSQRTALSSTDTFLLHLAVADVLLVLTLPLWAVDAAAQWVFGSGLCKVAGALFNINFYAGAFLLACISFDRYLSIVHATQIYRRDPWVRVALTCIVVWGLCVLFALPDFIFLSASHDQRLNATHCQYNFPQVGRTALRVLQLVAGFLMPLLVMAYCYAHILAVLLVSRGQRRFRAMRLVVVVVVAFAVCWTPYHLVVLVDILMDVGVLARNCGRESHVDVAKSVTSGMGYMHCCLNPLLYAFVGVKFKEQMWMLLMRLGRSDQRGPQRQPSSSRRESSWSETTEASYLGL
T3 sequence (Q5KSK8 whole entry): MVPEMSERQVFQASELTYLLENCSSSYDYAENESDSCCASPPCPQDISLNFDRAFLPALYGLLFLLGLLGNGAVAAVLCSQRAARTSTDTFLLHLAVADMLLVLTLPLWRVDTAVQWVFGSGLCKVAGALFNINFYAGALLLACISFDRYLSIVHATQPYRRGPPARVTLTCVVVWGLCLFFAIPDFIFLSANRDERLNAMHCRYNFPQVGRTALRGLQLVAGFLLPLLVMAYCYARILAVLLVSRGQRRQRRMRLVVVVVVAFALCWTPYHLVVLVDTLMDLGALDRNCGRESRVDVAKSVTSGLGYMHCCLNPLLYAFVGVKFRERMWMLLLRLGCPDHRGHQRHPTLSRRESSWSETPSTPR
T2 sequence (O88410 whole entry): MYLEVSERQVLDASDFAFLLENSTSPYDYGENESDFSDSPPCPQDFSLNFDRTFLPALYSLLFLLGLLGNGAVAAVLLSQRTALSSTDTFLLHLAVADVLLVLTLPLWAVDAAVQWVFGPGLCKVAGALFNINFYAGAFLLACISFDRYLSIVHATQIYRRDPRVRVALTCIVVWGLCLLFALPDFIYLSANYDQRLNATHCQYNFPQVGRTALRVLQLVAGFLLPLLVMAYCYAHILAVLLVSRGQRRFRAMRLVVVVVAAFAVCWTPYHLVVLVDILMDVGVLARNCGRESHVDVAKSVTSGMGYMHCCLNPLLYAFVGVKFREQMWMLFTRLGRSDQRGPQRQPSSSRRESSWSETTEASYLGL
Method for C57BL/6 mice: Female C57BL/6 mice were purchased from Jackson Laboratory (Bar Harbor, ME). For immunization, 150 μg MOG35-55 peptide prepared by Princeton Biomolecules (Langhorne, PA, USA) and 300 μg killed Mycobacterium tuberculosis (Difco, Detroit, MI) were mixed in CFA (Sigma-Aldrich, St Louis, MO, USA) and injected s.c. in two 50-μl injections over the flanks on day 1. Also, 200 ng of pertussis toxin (Sigma-Aldrich, St Louis, MO) was injected i.v. on days 0 and 2. The compound was administered orally twice daily. Dosing with the compound started at day 0, 24 h prior to MOG35-55 immunization (day 1). Mice were monitored daily and assessed for clinical signs of disease in a blinded fashion according to the following criteria: 0, no signs of disease; 1, tail paralysis; 2, limp tail and hind limb weakness; 3, hind limb paralysis; 4, hind limb plus forelimb paralysis; and 5, moribund or dead. Cumulative clinical scores were calculated by adding daily scores from the day of immunization until the end of the experiment. Mean clinical scores at separate days and mean maximal scores were calculated by adding the scores of individual mice and dividing with the number of mice in each group, including mice not developing signs of EAE. […]

For `CC[C@H]1CN(c2nc(N)c(C(N)=O)nc2Cl)CCN1C1CCN(Cc2ccc(Cl)cc2)CC1` [SCH 546738], the “effect on disease onset and severity” value in the assay with C57BL/6 mice (30 mpk orally twice daily, alone, days 17 and 19) is “delayed disease onset and attenuated disease severity”. The “effect on disease onset and severity, combination treatment” value in the assay with C57BL/6 mice (SCH 546738 30 mpk p.o. twice daily combined with IFN-β 1700 ng i.m. daily, compared to either alone) was “significant additive effect”. Besides, the IC50 came to 4.2 nM at rat CXCR3, 5.9 nM at mouse CXCR3 and 6.4 nM at dog CXCR3.

For orientation: IC50 means the concentration that inhibits the measured activity by half.
